# Source: paper PMC11475664, “Alpha-glucosidase inhibitory compounds from Vietnamese lichen Usnea baileyi: in vitro and in silico aspects” (RSC Advances, 2024)
# Like-named read-outs stand apart in the source and are kept apart here.
# Columns and labels:
# yeast alpha-glucosidase = assay: Alpha-glucosidase inhibition assay; type: biochemical; conditions: for IC50: yeast alpha-glucosidase
# Description: Evaluation of the inhibitory activity of compounds against yeast alpha-glucosidase followed a previous procedure.[30]
# Hek293 cells = assay: Cytotoxicity assay (MTT, 72 h) on Hek293; type: cell-based; conditions: Homo sapiens, read-out: Hek293 IC50
# Method: (§1) Table S2. Cytotoxicity of compounds 1-6, 11, 1a-1e, and 6a […]
# (§2) The method used followed that reported by Nguyen et al. (2022). Briefly, HepG2 and Hek293 cells in a complete medium containing DMEM (HyClone, Cytiva, USA) and 10% fetal bovine serum (FBS) were seeded into a 96-well plate at 5 × 10^4 cells per well. The cells were then incubated at 37°C with 5% CO2. After culturing for 24 h, the old medium was replaced by diluted compounds (in DMSO), positive control Doxorubicin (DOX, Fesenius Kabi, Germany), and negative control dimethyl sulfoxide (DMSO, Sigma-Aldrich, Germany). After 72 h of treatment, MTT (3-(4,5-Dimethyl-2-thiazolyl)-2,5-diphenyl-2H-tetrazolium bromide) was added into each well of the test plate. The plate was incubated at 37°C with 5% CO2 for another 3 h. DMSO was used to dissolve the crystals from the interaction between MTT and viable cells. The absorbance of samples was read at 570 nm by the ELISA Reader (BioTek, USA). Cell death (% inhibition) was estimated by the following formula:
# (§3) % Inhibition = 100 − [100 × (A Sample – A B1)/(ADMSO – A B2)]
# (§4) Where, ASample: Absorbance of sample, ADMSO: Absorbance of negative control, AB1: Absorbance of blank of sample, AB2: Absorbance of blank of DMSO. The IC50 value and the inhibitory chart were respectively calculated and built using GraphPad Prism software (version 8.0.1, Insightful Science LLC, […]
# (§5) Ref: Nguyen HH, Aree T, Nguyen HT, et al. Diorygmones A-B, two new guaiane-sesquiterpenes from the cultured lichen mycobiont of Diorygma sp. Natural Product Research. Published online February 1,
# HepG2 cells = assay: Cytotoxicity assay (MTT, 72 h) on HepG2; type: cell-based; conditions: Homo sapiens, read-out: HepG2 IC50
# Method: as §1, §2, §3, §4, §5
# alpha-glucosidase [1] = conditions: cited from earlier work
# alpha-glucosidase [2] = assay: Inhibitory type assay of 1e on alpha-glucosidase (Lineweaver–Burk plots, pNPG substrate); type: biochemical, yeast
# Method: Replacing the imine group in 1a and 1b for the aldehyde group in 1 enhances the activity. […] In contrast, the bromine atoms within a depsidone skeleton (1c, 1d, and 6a) decrease the activity. […] At concentrations of 0, 1.82, 3.64, 7.28, and 14.57 μM of 1e, the activity was evaluated. […] This type was identical to that of parmosidone F.[18]
# The mechanisms of inhibition of alpha-glucosidase by 1e were determined by Lineweaver–Burk plots using methods similar to those reported in the literature.[18] Enzyme inhibition due to various concentrations of 1e was evaluated by monitoring the effects of different substrate concentrations. For Lineweaver–Burk double reciprocal plots 1/enzyme velocity (1/V) vs. 1/substrate concentration (1/[S]), the inhibition type was determined using various concentrations of pNPG (1 mM, 2 mM, and 4 mM) as a substrate in the presence of different concentrations of the test compounds (0, 1.82, 3.64, 7.28, and 14.57 μM for 1e). The experiments were carried out in 3 replicates. The mixtures were incubated at 37 °C and the optical density was measured at 405 nm every 1 minutes for 30 minutes with the ELx800 Absorbance Microplate Reader (BioTek Instruments, Inc., Vermont, USA). Optimal concentrations of the tested compounds were chosen based on the IC50 values. […]
# [3] = Cytotoxicity assay (MTT, 72 h) on Hek293; type: cell-based; conditions: human
# Method: as §1, §2, §3, §4, §5
# [4] = Cytotoxicity assay (MTT, 72 h) on HepG2; type: cell-based; conditions: human
# Method: as §1, §2, §3, §4, §5
# [5] = normal cells Hek293, MTT, 72 h, Table S2
# [6] = liver cancer cell line HepG2, MTT, 72 h, Table S2
# [7] = read-out: IC50, alpha-glucosidase inhibition, previously reported
# [8] = read-out: IC50, alpha-glucosidase inhibition of natural analogs of 1e (Fig. 9)
# [9] = read-out: IC50, alpha-glucosidase inhibition of related synthetic analogs (Fig. 8)
IC50 (yeast alpha-glucosidase),Compound,IC50 (Hek293 cells; [5]),IC50 (HepG2 cells; [6]),also measured
70.6 ± 1.2 µM,"Cc1cc(O)c(C=O)c2c1C(=O)Oc1c(CO)c(O)c(C(=O)O)c(C)c1O2 [Compound 1, protocetraric acid]",35.7 ± 2.4 µg/mL,63.6 ± 0.06 µg/mL,IC50 (alpha-glucosidase [1]; [7]): 81.6 µM
25.9 ± 2.2 µM,"Cc1cc(O)c(/C=N/Nc2ccccc2)c2c1C(=O)Oc1c(CO)c(O)c(C(=O)O)c(C)c1O2 [Compound 1a, (E)-3,8-dihydroxy-9-(hydroxymethyl)-1,6-dimethyl-11-oxo-4-((2-phenylhydrazono-)methyl)-11H-dibenzo[b,e][1,4]dioxepine-7-carboxylic acid]",> 100 µg/mL,> 100 µg/mL,–
20.7 ± 1.1 µM,"Cc1cc(O)c(/C=N/Nc2ccc(Br)cc2)c2c1C(=O)Oc1c(CO)c(O)c(C(=O)O)c(C)c1O2 [Compound 1b, (E)-4-((2-(4-bromophenyl)hydrazono)methyl)-3,8-dihydroxy-9-(hydroxymethyl)-1,6-dimethyl-11-oxo-11H-dibenzo[b,e][1,4]dioxepine-7-carboxylic acid]",> 100 µg/mL,> 100 µg/mL,–
80.7 ± 1.8 µM,"Cc1c(Br)c(O)c(Br)c2c1Oc1c(Br)c(O)c(Br)c(C)c1C(=O)O2 [Compound 1c, 2,4,7,9-tetrabromo-3,8-dihydroxy-1,6-dimethyl-11H-dibenzo[b,e][1,4]dioxepin-11-one]",58.9 ± 2.84 µg/mL,76.5 ± 1.07 µg/mL,–
91.8 ± 1.5 µM,"CC(=O)OCc1c(O)c(Br)c(C)c2c1OC(=O)c1c(C)c(Br)c(O)c(Br)c1O2 [Compound 1d, (2,4,7-tribromo-3,8-dihydroxy-1,6-dimethyl-11-oxo-11H-dibenzo[b,e][1,4]dioxep-in-9-yl)methyl acetate]",61.1 ± 2.71 µg/mL,86.7 ± 0.68 µg/mL,–
10.4 ± 0.4 µM,"Cc1cc(O)c(C=O)c2c1C(=O)Oc1c(C)c(C(=O)O)c(O)c(Cc3c(O)cc(O)c(Cc4c(O)c(C(=O)O)c(C)c5c4Oc4c(C=O)c(O)cc(C)c4C(=O)O5)c3C)c1O2 [Compound 1e, 6,6′-((4,6-dihydroxy-2-methyl-1,3-phenylene)bis(methylene))bis(4-formyl-3,7-dihydroxy-1,9-dimethyl-11-oxo-11H-dibenzo[b,e][1,4]dioxepine-8-carboxylic acid)]",> 100 µg/mL,> 100 µg/mL,"alpha-glucosidase inhibition, fold stronger than 1 (yeast alpha-glucosidase; compared with 1): seven-fold; inhibition type (alpha-glucosidase [2]; Lineweaver–Burk plots, 0, 1.82, 3.64, 7.28, 14.57 μM of 1e): mixed-mode inhibitor; Ki (alpha-glucosidase [2]; secondary plot, Fig. 4B, read-out: Ki, inhibition constant of binding with the free enzyme): 6.65 ± 0.48 µM"
41.8 ± 1.5 µM,"COc1cc(C)c2c(c1C=O)Oc1c(c(C)c(O)c3c1C(OC)OC3=O)OC2=O (stereo not drawn) [Compound 2, 8′-methylstictic acid]",> 100 µg/mL,> 100 µg/mL,–
30.4 ± 1.4 µM,"COc1cc(C)c2c(c1C=O)Oc1c(c(C)c(O)c3c1C(O)OC3=O)OC2=O (stereo not drawn) [Compound 3, stictic acid]",33.9 ± 1.6 µg/mL,> 100 µg/mL,–
> 200 µM,"COc1cc(C)c2c(c1C=O)Oc1c(C=O)c(C(=O)O)c(O)c(C)c1OC2=O [Compound 4, 4,6-diformyl-8-hydroxy-3-methoxy-1,9-dimethyl-11-oxo-11H-dibenzo[b,e][1,4]dioxepine-7-carboxylic acid]",> 100 µg/mL,> 100 µg/mL,–
> 200 µM,"COc1c(C)c2c(c(C)c1Cl)Oc1c(C)c(O)c(Cl)c(C)c1C(=O)O2 [Compound 5, vicanicin]",> 100 µg/mL,> 100 µg/mL,–
50.7 ± 2.7 µM,"Cc1cc(O)c(C=O)c2c1C(=O)Oc1c(C)c(O)c3c(c1O2)C(O)OC3=O (stereo not drawn) [Compound 6, norstictic acid]",> 100 µg/mL,> 100 µg/mL,–
102 ± 1.8 µM,"Cc1c(O)c2c(c3c1OC(=O)c1c(C)c(Br)c(O)c(C=O)c1O3)C(O)OC2=O (stereo not drawn) [Compound 6a, 9-bromo-1,4,10-trihydroxy-5,8-dimethyl-3,7-dioxo-3,7-dihydro-1H-benzo[6,7][1,4]-dioxepino[2,3-e]isobenzofuran-11-carbaldehyde]",88.2 ± 2.02 µg/mL,> 100 µg/mL,–
> 200 µM,"COc1cc(C)c(C(=O)Oc2cc(C)c(C(=O)O)c(O)c2C)c(OC)c1C [Compound 7, diffractaic acid]",–,–,IC50 (alpha-glucosidase [1]; [7]): 420 µM
> 200 µM,"COc1cc(C)c(C(=O)Oc2cc(C)c(C(=O)O)c(O)c2C)c(O)c1C [Compound 8, barbatic acid]",–,–,–
> 200 µM,"Cc1c(Cl)c(O)c(C=O)c(O)c1C(=O)O [Compound 10, 5-chlorohaematommic acid]",–,–,–
–,Cc1cc(OC(=O)c2c(O)cc(O)c(Cc3c(O)c(C(=O)O)c(C)c4c3Oc3c(C=O)c(O)cc(C)c3C(=O)O4)c2C)cc(O)c1C(=O)O [Cristifone A],–,–,IC50 (alpha-glucosidase [1]; [8]): 21.5 µM
–,Cc1cc(O)c(C=O)c(O)c1Cc1c(O)c(C(=O)O)c(C)c2c1Oc1c(C=O)c(O)cc(C)c1C(=O)O2 [Cristifone B],–,–,"inhibition type, previously reported (alpha-glucosidase [1]): non-competitive inhibitors; IC50 (alpha-glucosidase [1]; [8]): 18.4 µM"
–,"COc1cccc2c1C(=O)c1c(O)c3c(c(O)c1C2=O)C[C@@](O)(C(=O)CO)C[C@@H]3O[C@H]1C[C@H](N)[C@H](O)[C@H](C)O1 [Doxorubicin, reference compound]",2.13 ± 0.01 µg/mL,1.89 ± 0.03 µg/mL,–
–,"Cc1cc(O)c(/C=N/Nc2ccc(Br)cc2)c2c1C(=O)Oc1c(CO)c(O)c3c(c1O2)C(O)OC3=O (stereo not drawn) [I, (E)-11-((2-(4-bromophenyl)hydrazineylidene)methyl)-1,4,10-trihydroxy-5-(hydroxymethyl)-8-methyl-7H-benzo[6,7][1,4]dioxepino[2,3-e]isobenzofuran-3,7(1H)-dione]",–,–,"inhibition type, previously reported (alpha-glucosidase [1]): non-competitive inhibitors; IC50 (alpha-glucosidase [1]; [9]): 11.3 µM"
–,Cc1c(Br)c(O)c(Br)c2c1C(=O)Oc1c(CO)c(O)c(Br)c(C=O)c1O2 [III],–,–,IC50 (alpha-glucosidase [1]; [9]): 16.4 µM
–,Cc1cc(O)c(/C=N/Nc2ccc(Cl)cc2)c2c1C(=O)Oc1c(CO)c(O)c3c(c1O2)C(O)OC3=O (stereo not drawn) [II],–,–,IC50 (alpha-glucosidase [1]; [9]): 19.4 µM
–,Cc1c(Br)c(O)c(Br)c2c1C(=O)Oc1c(CO)c(O)c3c(c1O2)C(O)OC3=O (stereo not drawn) [IV],–,–,IC50 (alpha-glucosidase [1]; [9]): 15.6 µM
–,Cc1cc(OC(=O)c2c(C)cc(O)cc2O)cc(O)c1Cc1c(O)c(C(=O)O)c(C)c2c1Oc1c(C=O)c(O)cc(C)c1C(=O)O2 [Parmoferone A],–,–,IC50 (alpha-glucosidase [1]; [8]): 18.1 µM
–,Cc1cc(O)cc(O)c1Cc1c(O)c2c(c3c1OC(=O)c1c(C)cc(O)c(C=O)c1O3)C(O)OC2=O (stereo not drawn) [Parmosidone F],–,–,"inhibition type, previously reported (alpha-glucosidase [1]): mixed-mode inhibitor; IC50 (alpha-glucosidase [1]; [8]): 2.2 µM"
–,CC(=O)C=Cc1c(O)cc(C)c2c1Oc1c(c(Cc3c(C)cc(O)cc3O)c(O)c3c1C(O)OC3=O)OC2=O (stereo not drawn) [Parmosidone G],–,–,IC50 (alpha-glucosidase [1]; [8]): 4.3 µM
–,COC(=O)c1c(C)c(Cc2c(O)cc(C)c3c2Oc2c(C=CC(C)=O)c(O)cc(C)c2C(=O)O3)c(O)c(C)c1O [Parmosidone H],–,–,IC50 (alpha-glucosidase [1]; [8]): 17.6 µM
–,COC(=O)c1c(C)c(Cc2c(O)c(C(=O)O)c(C)c3c2Oc2c(C=O)c(O)cc(C)c2C(=O)O3)c(O)c(C=O)c1O [Parmosidone J],–,–,IC50 (alpha-glucosidase [1]; [8]): 10.7 µM
–,Cc1cc(O)cc(O)c1Cc1c(O)c(C(=O)O)c(C)c2c1Oc1c(C=O)c(O)cc(C)c1C(=O)O2 [Parmosidone K],–,–,IC50 (alpha-glucosidase [1]; [8]): 6.1 µM
–,Cc1c(Br)c(O)c(C=O)c2c1C(=O)Oc1c(Br)c(O)c3c(c1O2)C(O)OC3=O (stereo not drawn) [V],–,–,IC50 (alpha-glucosidase [1]; [9]): 14.3 µM

Compound,IC50 (yeast alpha-glucosidase),IC50 (Hek293 cells; [5]),IC50 (HepG2 cells; [6]),also measured
"Cc1cc(O)c(C=O)c(O)c1 [Compound 9, atranol]",> 200 µM,–,–,IC50 (alpha-glucosidase [1]; [7]): 559 µM
"COC(=O)[C@]12Oc3ccc(-c4ccc5c(c4O)C(=O)[C@@H]4CC[C@@H](C)[C@H](O)[C@]4(C(=O)OC)O5)c(O)c3C(=O)C1=C(O)C[C@H](C)[C@H]2O [Compound 11, eumitrin A1]",130 ± 2 µM,–,–,"IC50 at 72 h [3]: 60.3 µM; IC50 (Hek293 cells; HEK293, 72 h): 37.6 ± 4.3 µg/mL; IC50 at 72 h [4]: 62.1 µM; IC50 (HepG2 cells; HepG2, 72 h): 38.8 ± 0.5 µg/mL"
